Measured values: the supplement of paper PMC10331698
± gives the standard deviation of the averaged measurements.

Legend:
Experiment in all cases: level (log10 ratio to DMSO vehicle control); higher = higher biomarker level / cell amount than vehicle control
Conditions in all cases: in DMSO
[1] = compound: O=C(O)C=CC(F)(C(F)(F)F)C(F)(F)F [3-(Perfluoroisopropyl)-2-propenoic acid]
Protocol: (§1)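 BioMAP Diversity Plus panel of 12 human primary cell co-culture systems (3C, 4H, LPS, SAg, BT, BF4T, BE3C, CASM3C, HDF3CGF, KF3CT, MyoF, Mphg). Compounds were added 1 h before stimulation and left for 24 h (MyoF 48 h; BT 72 h for soluble read-outs or 6 d for IgG). Biomarkers were read by ELISA, cytotoxicity by SRB, PBMC viability and proliferation by Alamar Blue. Each well value was divided by the mean of 8 DMSO control wells on the same plate and log10 transformed; duplicate blinded samples were tested at 4 concentrations.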

[2] = compound: NS(=O)(=O)C(F)(F)C(F)(F)C(F)(F)C(F)(F)C(F)(F)C(F)(F)F [Perfluorohexanesulfonamide]
Protocol: as §1

Hexafluoroamylene glycol = compound: OCC(F)(F)C(F)(F)C(F)(F)CO [Hexafluoroamylene glycol]
Protocol: as §1

[3] = compound: FC(F)(F)C(F)(F)C(F)(F)CC1CO1 [1H,1H-Heptafluorobutyl epoxide]
Protocol: as §1

[4] = compound: FC(F)(F)C(F)(F)C(F)(F)C(F)(F)C(F)(F)C(F)(F)CC1CO1 [3-(Perfluorohexyl)-1,2-epoxypropane]
Protocol: as §1

Row | Test System | level (log10) ([1]; 6700 nM) | level (log10) ([1]; 20000 nM) | level (log10) ([1]; 60000 nM) | level (log10) ([2]; 6700 nM) | level (log10) ([2]; 20000 nM) | level (log10) ([2]; 60000 nM) | level (log10) (Hexafluoroamylene glycol; 6700 nM) | level (log10) (Hexafluoroamylene glycol; 20000 nM) | level (log10) (Hexafluoroamylene glycol; 60000 nM) | level (log10) ([3]; 6700 nM) | level (log10) ([3]; 20000 nM) | level (log10) ([3]; 60000 nM) | level (log10) ([4]; 6700 nM) | level (log10) ([4]; 20000 nM) | level (log10) ([4]; 60000 nM)
1 | BF4T:tPA | -0.004 ± 0.037 | -0.0055 ± 0.022 | 0.03 ± 0.024 | 0.004 ± 0.0028 | -0.012 ± 0.0085 | -0.075 ± 0.016 | -0.017 ± 0.021 | -0.0015 ± 0.0092 | 0.012 ± 0.038 | -0.012 ± 0.014 | -0.0235 ± 0.018 | -0.0065 ± 0.011 | 0.0155 ± 0.039 | -0.011 ± 0.0085 | 0.031 ± 0.034
2 | BF4T:uPA | -0.007 ± 0.016 | -0.016 ± 0.0057 | 0.0065 ± 0.018 | -0.003 ± 0.0042 | 0.0005 ± 0.0035 | -0.01 ± 0.011 | -0.0065 ± 0.021 | -0.006 ± 0.014 | 0.004 ± 0.0057 | -0.0065 ± 0.013 | 0.0025 ± 0.022 | -0.028 ± 0.034 | -0.0045 ± 0.011 | -0.0115 ± 0.0064 | 0.012 ± 0.04
3 | BT:PBMC Cytotoxicity | -0.016 ± 0.0042 | 0.002 ± 0.0042 | 0.021 ± 0.0057 | 0.0405 ± 0.011 | 0.047 ± 0.027 | 0.0775 ± 0.011 | 0.008 ± 0.024 | 0.008 ± 0.0057 | -0.005 ± 0.0099 | 0.0175 ± 0.026 | -0.0025 ± 0.022 | 0.017 ± 0.013 | -0.016 ± 0.0028 | -0.017 ± 0.025 | 0.0175 ± 0.016
4 | BT:sIL-2 | 0.029 ± 0.058 | -0.049 ± 0.12 | 0.001 ± 0.0085 | -0.018 ± 0.11 | -0.0415 ± 0.015 | 0.0705 ± 0.00071 | 0.0335 ± 0.022 | 0.0145 ± 0.054 | 0.0365 ± 0.056 | -0.0245 ± 0.0092 | -0.055 ± 0.15 | 0.022 ± 0.18 | -0.0165 ± 0.049 | 0.0215 ± 0.0035 | 0.007
5 | BT:sIL-17A | -0.01 ± 0.047 | 0.024 ± 0.14 | -0.124 ± 0.13 | -0.155 ± 0.069 | -0.072 ± 0.069 | -0.026 ± 0.051 | -0.089 ± 0.0014 | -0.0745 ± 0.0064 | 0.0015 ± 0.05 | -0.0185 ± 0.022 | 0.0025 ± 0.033 | -0.033 ± 0.067 | -0.0215 ± 0.057 | -0.0315 ± 0.12 | -0.041 ± 0.11
6 | BT:sTNF-alpha | -0.0275 ± 0.04 | -0.149 ± 0.1 | -0.028 ± 0.03 | -0.013 ± 0.12 | -0.027 ± 0.065 | 0.068 ± 0.09 | 0.0165 ± 0.037 | 0.0085 ± 0.022 | 0.0215 ± 0.064 | -0.042 ± 0.12 | -0.038 ± 0.02 | -0.123 ± 0.19 | 0.013 ± 0.11 | 0.128 ± 0.0064 | 0.0765 ± 0.14
7 | LPS:CD62E/E-Selectin | 0.0055 ± 0.015 | -0.013 ± 0.0042 | 0.0165 ± 0.0035 | -0.002 ± 0.0099 | -0.0295 ± 0.012 | -0.0815 ± 0.011 | 0.023 ± 0.024 | -0.007 ± 0.023 | -0.0125 ± 0.0064 | 0.0105 ± 0.012 | -0.009 ± 0.016 | 0.0035 ± 0.036 | -0.0055 ± 0.029 | 0 ± 0.0042 | 0.0165 ± 0.026
8 | LPS:CD106/VCAM-1 | 0.003 ± 0.018 | -0.023 ± 0.013 | -0.018 ± 0.021 | -0.029 ± 0.047 | -0.0315 ± 0.049 | -0.097 ± 0.016 | -0.0215 ± 0.054 | -0.03 ± 0.064 | -0.0055 ± 0.059 | 0.01 ± 0.017 | 0.0125 ± 0.0064 | 0.002 ± 0.0071 | -0.002 ± 0.011 | -0.0235 ± 0.015 | -0.022 ± 0.017
9 | LPS:CD141/Thrombomodulin | -0.024 ± 0.037 | -0.022 ± 0.0057 | -0.036 ± 0.02 | -0.0155 ± 0.0092 | -0.017 ± 0.017 | -0.0095 ± 0.028 | 0.0715 ± 0.097 | 0.035 ± 0.023 | 0.06 ± 0.064 | 0.059 ± 0.0071 | 0.039 ± 0.079 | 0.019 ± 0.033 | -0.0405 ± 0.0035 | -0.038 ± 0.0099 | -0.0545 ± 0.0064
10 | LPS:CXCL8/IL-8 | -0.0055 ± 0.019 | -0.0205 ± 0.023 | -0.0015 ± 0.019 | -0.005 ± 0.0071 | -0.0015 ± 0.013 | -0.034 ± 0.0071 | 0.025 ± 0.076 | 0.026 ± 0.0057 | 0.0885 ± 0.037 | -0.019 ± 0.031 | -0.0135 ± 0.028 | 0.003 ± 0.031 | -0.0205 ± 0.011 | -0.0135 ± 0.021 | 0.0015 ± 0.035
11 | LPS:sPGE2 | 0.01 ± 0.065 | 0.046 ± 0.023 | 0.0575 ± 0.025 | 0.088 ± 0.014 | 0.13 ± 0.032 | 0.207 ± 0.046 | -0.0265 ± 0.022 | -0.0255 ± 0.071 | -0.0325 ± 0.054 | 0.007 ± 0.03 | 0.005 ± 0.05 | 0.0105 ± 0.00071 | 0.022 ± 0.0057 | -0.0655 ± 0.0035 | -0.047 ± 0.0099
12 | LPS:sTNF-alpha | 0.003 ± 0.1 | 0.0345 ± 0.057 | 0.0395 ± 0.03 | -0.0515 ± 0.022 | -0.02 ± 0.041 | -0.0325 ± 0.079 | 0.0025 ± 0.012 | -0.009 ± 0.014 | -0.001 ± 0.0099 | -0.003 ± 0.014 | -0.0055 ± 0.012 | -0.014 ± 0.0085 | 0.063 ± 0.034 | 0.09 ± 0.0028 | 0.103 ± 0.011
13 | SAg:CCL2/MCP-1 | -0.003 ± 0.0042 | -0.0005 ± 0.016 | -0.0055 ± 0.0064 | -0.0065 ± 0.00071 | -0.0185 ± 0.0035 | -0.085 ± 0.027 | -0.012 | -0.002 ± 0.011 | -0.016 ± 0.0099 | 0.0055 ± 0.0035 | -0.009 ± 0.0071 | -0.025 ± 0.017 | -0.0075 ± 0.012 | 0.0005 ± 0.0021 | 0.003 ± 0.016
14 | SAg:CD40 | -0.006 ± 0.058 | -0.005 ± 0.04 | -0.038 ± 0.014 | -0.025 ± 0.017 | -0.064 ± 0.0057 | -0.172 ± 0.0064 | -0.0285 ± 0.03 | -0.011 ± 0.044 | -0.0215 ± 0.04 | -0.01 ± 0.034 | -0.0015 ± 0.0064 | -0.0235 ± 0.013 | -0.008 ± 0.013 | -0.0135 ± 0.012 | -0.018 ± 0.013
15 | SAg:CD62E/E-Selectin | 0 ± 0.011 | 0.0045 ± 0.013 | -0.006 ± 0.0042 | -0.0155 ± 0.012 | -0.05 ± 0.035 | -0.178 ± 0.034 | -0.0415 ± 0.039 | -0.0015 ± 0.0035 | -0.0135 ± 0.00071 | -0.0065 ± 0.043 | -0.013 ± 0.0057 | -0.015 ± 0.016 | -0.008 ± 0.018 | 0.0005 ± 0.0035 | -0.012 ± 0.027
16 | SAg:CD69 | -0.0105 ± 0.0035 | 0.013 ± 0.0085 | 0.002 ± 0.0071 | -0.028 ± 0.017 | -0.0725 ± 0.019 | -0.217 ± 0.02 | -0.039 ± 0.042 | -0.0215 ± 0.023 | -0.024 ± 0.048 | 0.0115 ± 0.00071 | 0.009 ± 0.0014 | 0 ± 0.031 | 0.013 ± 0.0042 | 0.011 ± 0.011 | 0.0035 ± 0.00071
17 | SAg:CXCL8/IL-8 | -0.0185 ± 0.005 | -0.0015 ± 0.033 | 0.009 ± 0.028 | -0.0225 ± 0.021 | -0.088 ± 0.0099 | -0.237 ± 0.088 | -0.0285 ± 0.073 | -0.0175 ± 0.0092 | 0.052 ± 0.035 | -0.012 ± 0.05 | -0.011 ± 0.021 | 0.005 ± 0.027 | -0.0135 ± 0.021 | -0.029 ± 0.013 | 0.0075 ± 0.026
18 | SAg:CXCL9/MIG | -0.0105 ± 0.025 | 0.013 | -0.006 ± 0.0085 | -0.0135 ± 0.018 | -0.004 ± 0.0071 | 0.0105 ± 0.0064 | -0.0015 ± 0.011 | -0.016 ± 0.016 | -0.003 ± 0.0071 | -0.0155 ± 0.0078 | -0.0165 ± 0.015 | -0.0065 ± 0.018 | 0.008 ± 0.0085 | 0.006 ± 0.0057 | 0.002 ± 0.0042
19 | SAg:Proliferation | 0.009 ± 0.016 | -0.008 ± 0.037 | 0.008 ± 0.04 | 0.0045 ± 0.0035 | -0.016 ± 0.013 | -0.0695 ± 0.019 | -0.024 ± 0.041 | -0.0395 ± 0.013 | -0.039 ± 0.0042 | -0.0295 ± 0.059 | 0.017 ± 0.059 | 0.055 ± 0.054 | 0.013 ± 0.014 | -0.0105 ± 0.019 | 0.013 ± 0.051
20 | SAg:SRB | -0.001 ± 0.0042 | -0.007 ± 0.025 | -0.0065 ± 0.028 | -0.003 ± 0.0028 | -0.001 ± 0.0028 | -0.094 ± 0.021 | -0.0015 ± 0.00071 | -0.004 ± 0.0028 | -0.0005 ± 0.019 | 0.0065 ± 0.026 | -0.0065 ± 0.0092 | -0.0115 ± 0.011 | -0.007 ± 0.0099 | -0.012 ± 0.0042 | 0.006 ± 0.016
